From article PMC6269946, “Anti-Plasmodial Activity of Some Zulu Medicinal Plants and of Some Triterpenes Isolated from Them” (Molecules, 2013)
In brackets after ≈: the same amount, converted by molar mass. Like-named read-outs stand apart in the source and are kept apart here.

Assays:
[1] = tested on: chloroquine sensitive (CQS) strain of Plasmodium falciparum (D10); assay: In vitro antiplasmodial activity, parasite lactate dehydrogenase assay; assay type: cell-based; details: for IC50: Plasmodium falciparum
Description: The test samples (crude extracts, isolates, and chemical derivatives) were tested in triplicate against a chloroquine sensitive (CQS) strain of Plasmodium falciparum (D10). Continuous in vitro cultures of asexual erythrocyte stages of P. falciparum were maintained using modified method of Trager and Jensen. Quantitative assessment of anti-plasmodial activity in vitro was determined via the parasite lactate dehydrogenase assay using a modified method described by Makler. The test samples were prepared to a 20 mg/mL stock solution in 100% DMSO and sonicated to enhance solubility. Stock solutions were stored at −20 °C. Further dilutions were prepared on the day of the experiment. Chloroquine and artesunate were used as the reference drugs for experiments. A full dose-response was performed for all active compounds to determine the concentration inhibiting 50% of parasite growth (IC50-value). Test samples were tested at a starting concentration of 100 μg/mL, which was then serially diluted 2-fold in complete medium to give 10 preparations of variable concentrations; with the lowest concentration being 0.2 μg/mL. The same dilution technique was used for all samples. CQ was tested at a starting concentration of 1,000 ng/mL. The highest concentration of solvent to which the parasite-infected erythrocytes were exposed to had no measurable effect on the parasite viability (data not shown). The IC50-values were obtained using a non-linear dose-response curve fitting analysis via Graph Pad Prism v.4.0 software (Graph Pad Prism, Inc: San Diego, CA, USA, 1994–2003).

[2] = tested on: Plasmodium berghei; assay: In vivo antiplasmodial activity, four-day suppressive test in infected mice; parameters: species or system Swiss mice; details: P. berghei infected mice, oral for four consecutive days, smears on day five; chloroquine 5 mg/kg/day; dose not given (50-400 mg/kg/day groups)
Description: This study was carried out after the approval from the Ethical Committee on Animal Use and Care of the University of Zululand (UZREC 171110-030 PGD 2013/26). Swiss mice (20-25 g each) of both sexes were obtained from biomedical research unit (BRU) in the University of […], Durban. They were kept in plastic cages, and given standard laboratory diet and water ad libitum and maintained under laboratory conditions of temperature and 12 h light and 12 h dark cycle. The animals were allowed to acclimatize to the laboratory at a controlled temperature of 22 °C for 15 days before being subjected to the experiments. The animals were divided into seven groups (eight in each group) consisting of control, chloroquine (5 mg/kg/day), and the extract treated group. The extract treated group was sub divided into five sub groups that received 50, 100, 200, 300 and 400 mg/kg/day body weight respectively. A single donor mouse infected with Plasmodium berghei parasites was bled into sterile heparinized culture medium and the blood was diluted with RPMI 1640 medium. The healthy experimental mice were infected intravenously via a tail vein with 0.2 mL of the diluted blood containing 1 × 10^7 parasitized (Plasmodium berghei) red blood cells on day one. The antimalarial activity tests were performed using the four-day suppressive tests described by Peters et al.. The extracts dissolved in 0.5% carboxymethyl cellulose (CMC) were administered orally using cannula (equivalent to 0.2 mL solution per mouse) for four consecutive days. […] The percent parasitemia suppression was determined by counting the number of parasitized erythrocytes out of 500 red blood cells on random fields under the microscope. The average percentage suppression of parasitemia was calculated using the following formula: % suppression = A - B/C (1) where A = % parasitemia in untreated controls, B = % parasitemia in treated groups, and C = % parasitemia in untreated controls. The data were analyzed using the F-test.

[3] = P. falciparum CQS D10 strain, in vitro, pLDH assay, triplicate, starting concentration 100 μg/mL, read-out: IC50 (anti-plasmodial activity, concentration inhibiting 50% of parasite growth)

With C[C@H]1[C@H](C)CC[C@]2(C(=O)O)CC[C@]3(C)C(=CC[C@@H]4[C@@]5(C)CCC(=O)C(C)(C)[C@@H]5CC[C@]43C)[C@H]12 [3-oxo-ursolic acid] the IC50 [1, 3] was 7.3 µg/mL (≈ 16.1 µM).
Work on C[C@H]1[C@H](OC(=O)CCC(=O)O)O[C@@H]2O[C@@]3(C)CC[C@H]4[C@H](C)CC[C@@H]1[C@@]24OO3 [Artesunate, reference compound] yielded an IC50 ([1]; P. falciparum CQS D10 strain, in vitro, pLDH assay, values marked * = ng/mL, read-out: IC50 (anti-plasmodial activity), reference drugs) of 0.0051 µg/mL (≈ 0.0133 µM).
With CCN(CC)CCCC(C)Nc1ccnc2cc(Cl)ccc12 (centres unmarked) [Chloroquine, reference compound] the IC50 ([1]; D10, read-out: IC50 (anti-plasmodial activity), reference drugs) was 0.0141 µg/mL (≈ 0.0441 µM) and the “Average % suppression (of parasitemia)” value [2] was 83.43%.
With CO[C@H]1CC[C@@]2(C)C(CC[C@@]3(C)C4=CC[C@@]5(C)CCC(C)(C)CC5[C@]4(C)CCC23)C1(C)C (some centres unmarked) [Sawamilletin, sawamilletin] the IC50 [1, 3] was > 100 µg/mL.
In the case of CC1(C)CC[C@]2(C)CC=C3[C@]4(C)CC[C@H]5C(C)(C)[C@@H](O)CC[C@]5(C)[C@H]4CC[C@@]3(C)[C@@H]2C1 [Taraxerol, taraxerol], the IC50 [1, 3] is reported as > 100 µg/mL.
With CC(=O)O[C@H]1CC[C@]2(C)[C@H]3CC=C4[C@@H]5[C@@H](C)[C@H](C)CC[C@]5(C(=O)O)CC[C@@]4(C)[C@]3(C)CC[C@H]2C1(C)C [Ursolic acid acetate, 3β-acetylursolic acid] the IC50 [1, 3] was 1.9 µg/mL, the “Increase in the in vitro anti-malarial activity relative to ursolic acid” value ([1]; acetate derivative versus ursolic acid, P. falciparum D10) was 72% and the Average % parasitemia [2] was 0.07%. The “Average % suppression (of parasitemia)” value [2] was 94.01%.
Work on C[C@H]1[C@H](C)CC[C@]2(C(=O)O)CC[C@]3(C)C(=CC[C@@H]4[C@@]5(C)CC[C@H](O)C(C)(C)[C@@H]5CC[C@]43C)[C@H]12 [Ursolic acid, ursolic acid] yielded an IC50 [1, 3] of 6.8 µg/mL (≈ 14.9 µM).
